We go through 2 compounds from article PMC9731865, “Gambogic acid and juglone inhibit RNase P through distinct mechanisms” (The Journal of Biological Chemistry, 2022).

For assay [1], the target named is T1, PRORP1 (Arabidopsis thaliana, UniProt Q66GI4).
T1 construct: made in house
T1 sequence (Q66GI4 77-572): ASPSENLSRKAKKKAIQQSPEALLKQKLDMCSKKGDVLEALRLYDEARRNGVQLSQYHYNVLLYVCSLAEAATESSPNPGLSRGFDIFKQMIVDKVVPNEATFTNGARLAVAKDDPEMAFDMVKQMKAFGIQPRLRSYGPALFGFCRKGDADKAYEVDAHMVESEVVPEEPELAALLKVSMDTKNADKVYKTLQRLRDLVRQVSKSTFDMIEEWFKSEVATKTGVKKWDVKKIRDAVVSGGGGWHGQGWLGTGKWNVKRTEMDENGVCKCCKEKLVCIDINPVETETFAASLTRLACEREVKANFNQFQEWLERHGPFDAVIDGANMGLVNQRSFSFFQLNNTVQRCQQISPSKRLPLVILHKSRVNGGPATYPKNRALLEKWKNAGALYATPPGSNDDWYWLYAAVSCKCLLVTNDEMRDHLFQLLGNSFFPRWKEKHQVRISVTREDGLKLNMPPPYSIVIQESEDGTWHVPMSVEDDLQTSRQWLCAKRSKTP
The assay can be described thus: Mode of inhibition of gambogic acid, PRORP1 activity at varying pre-tRNA and inhibitor. It is filed as biochemical, A. thaliana. On the procedure:
Equation 2 was fit to each data set to calculate the values of kcat,app, and KM,app, and (kcat/KM)app. […] The dotted line simulates the fit of Equation 3 with n = 1. C, kcat/KM,app values for PRORP1 activity vary little as a function of the gambogic acid concentration. Error bars indicate standard errors obtained from fitting the data.
To identify the mode of inhibition of gambogic acid, PRORP1 activity was measured with varying pre-tRNA and gambogic acid concentrations. The Michaelis–Menten equation (Equation 2) was fit to each curve individually to calculate the apparent turnover rate constant (kcat,app) and apparent substrate concentration at half maximal activity (KM,app). […] (3) kcat,app=kcat/1+([I]/KI)^n (4) KM,app=KM/1+([I]/KI)^n

The target in assay [2] is T2, PRORP1 wildtype (Arabidopsis thaliana, UniProt Q66GI4).
T2 construct: made in house
T2 sequence (Q66GI4 77-572): T1 sequence (Q66GI4 77-572)
The assay can be described thus: Time-dependent inactivation of PRORP1 by juglone (varying preincubation time). It is filed as biochemical, A. thaliana. To be noted: for kinact/KI: wildtype PRORP1, 0.3 nM PRORP1, 250 nM pre-tRNA, 22 °C. On the procedure: A global fit of the data (Equations 5 and 6) was used to calculate kinact/KI. […] The errors shown are the standard errors obtained from fitting Equation 5 to the data in A independently. Reactions were performed with 0.3 nM PRORP1, 250 nM pre-tRNA containing 40 nM Fl-pre-tRNA, at 22 °C, in 30 mM MOPS, pH 7.8, 1 mM TCEP, 5 mM MgCl2, 500 nM (12 μg/ml) yeast tRNA, 5 mM spermidine, 6.65 μg/ml BSA, and 0.01% NP-40. Data are fit to determine kinact/KI.
For the analysis of juglone, PRORP1 activity was measured with varying preincubation time and juglone concentration. Varying concentrations of juglone were preincubated with a 35 μl of PRORP1 from 2 min to 4 h in 30 mM MOPS pH 7.8, 5 mM MgCl2, 100 mM NaCl, 1 mM TCEP, 500 nM (12 μg/ml) yeast tRNA^mix, 5 mM spermidine, 6.65 μg/ml BSA, and 0.01% NP-40. The concentration of DMSO in each reaction was held constant at 1%. Reactions were initiated by addition of 5 μl of substrate for a final working concentration of 0.3 nM PRORP1 and 250 nM pre-tRNA, a substrate concentration well below the KM value. The dependence of the initial velocity on the preincubation time was fit to a single exponential decay equation (Equation 5) to determine kinact,app at each juglone concentration. The values for kinact,app for various juglone concentrations (represented by [I]) were fit with Equation 6 to determine kinact/KI, assuming a 2-step inactivation mechanism.(5) Activity(%)=Ae^−(kinact,app)t (6) kinact,app=kinact/KI(KI[I]/KI+[I])

The target in assay [3] is T. maritima RNase P. On the set-up: method as in PMID 30997498. To be noted: cited from earlier work.
The target in assay [4] is T3, PRORP1 C373A (Arabidopsis thaliana, UniProt Q66GI4, C373A).
T3 construct: made in house
T3 sequence (Q66GI4 77-572 C373A): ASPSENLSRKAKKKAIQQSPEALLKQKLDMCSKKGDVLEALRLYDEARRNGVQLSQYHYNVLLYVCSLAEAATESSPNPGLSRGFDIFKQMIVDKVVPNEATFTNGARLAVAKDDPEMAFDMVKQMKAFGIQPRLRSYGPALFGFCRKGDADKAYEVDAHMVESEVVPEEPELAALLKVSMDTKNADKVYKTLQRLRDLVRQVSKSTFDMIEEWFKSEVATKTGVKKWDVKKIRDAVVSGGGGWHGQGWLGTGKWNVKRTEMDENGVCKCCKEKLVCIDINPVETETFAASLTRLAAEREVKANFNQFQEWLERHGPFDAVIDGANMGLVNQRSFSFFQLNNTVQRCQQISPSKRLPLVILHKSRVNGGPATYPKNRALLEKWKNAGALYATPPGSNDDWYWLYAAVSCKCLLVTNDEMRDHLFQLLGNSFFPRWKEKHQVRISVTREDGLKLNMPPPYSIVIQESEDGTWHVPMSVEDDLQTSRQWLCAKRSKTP
Put plainly: Time-dependent inactivation by juglone, PRORP1 C373A. It is filed as biochemical, A. thaliana. The protocol: Given the multiple sites of cysteine modification, we wanted to identify the one(s) that potentially play a significant role in PRORP1 inactivation. Therefore, several cysteine-to-alanine point mutants were expressed, purified, and subjected to inhibition studies. We tested both single-site (C353A and C373A) and double-site (C353A/C373A and C222A/C353A) mutations. […] The value of kinact,app for each PRORP1 at varied concentrations of juglone was determined by fitting a single exponential equation (Equation 5) to the data (Fig. 10A). Unexpectedly, the values of kinact/KI (reflecting the inhibition of E + I to form EI∗) increased for a number of the PRORP1 variants: wildtype (0.001 ± 0.00004 μM^-1 min^-1), C353A (0.005 ± 0.002 μM^−1 min^−1), C373A (0.002 ± 0.0004 μM^-1 min^−1), C222A/C353A (0.003 ± 0.0001 μM^−1 min^−1), and C353A/C373A (0.0008 ± 0.0002 μM^-1 min^−1). These modest increases could be due to a decrease in the KI value or an increase in the value of kinact. […] Although, we cannot discount the possibility, however unlikely, that juglone may employ a mode of inhibition beyond cysteine residue modification that our crystal structures fail to capture.
Figure 10 Effects of PRORP1 cysteine mutations on juglone inactivation. […]
For the analysis of juglone, PRORP1 activity was measured with varying preincubation time and juglone concentration. […]

By IC50 is commonly meant the point on the concentration scale where inhibition reaches its midpoint.

“And” between values parts separate entries of the source, which are not always exact repeats. Identical values can stand only once. Like-named read-outs stand apart in the source and are kept apart here.

Consider `CC(C)=CCC[C@]1(C)C=Cc2c(O)c3c(c(CC=C(C)C)c2O1)O[C@]12C(=C[C@@H]4C[C@H]1C(C)(C)O[C@@]2(C/C=C(/C)C(=O)O)C4=O)C3=O` [gambogic acid], for which the “Hill coefficient (n), fit of Equation 3” value in assay [1] (dependence of kcat,app on gambogic acid concentration) was 4 and 3.8 ± 0.8. Also, the Ki in assay [1] (global fit, read-out: KI, global fit analysis (Equations 2, 3, 4)) amounted to 1.1 ± 0.03 µM; in assay [1] (uncompetitive model, gambogic acid 0-1.6 μM, read-out: inhibition constant (KI), fit of Equation 3 to kcat,app), 1.08 ± 0.05 µM. In addition, in assay [1] (kcat,app decreases, (kcat/KM)app unchanged), the “mode of inhibition of PRORP1” value is on record as “uncompetitive inhibitor”.
Consider `O=C1C=CC(=O)c2c(O)cccc21` [juglone, 5-hydroxy-1,4-naphthalenedione], for which the Ki is 12.5 ± 2.7 µM in assay [2] and greater than 10 µM in assay [4]. Further, in assay [2] (10 μM juglone (highest concentration)), the “decrease in initial activity (extrapolated to 0 min preincubation)” value is recorded as 50%. For the same compound, the “Hill coefficient n of the fit to 0-min preincubation data” value in assay [2] (Equation 1) worked out at 1. The “mode of inhibition of PRORP1” value in assay [2] (inhibition depends on preincubation time) is on record as “time-dependent inhibitor”. In addition, the kinact/KI in assay [2] (read-out: kinact/KI, global fit using Equations 5 and 6 (converted)) is 16.7 M⁻¹ s⁻¹; in assay [2] (read-out: kinact/KI, hyperbolic fit using Equation 6 (converted)), 16.7 M⁻¹ s⁻¹; in assay [4], 33.3 M⁻¹ s⁻¹. Also, the IC50 in assay [3] is 12.8 µM.
